# Measured values published in ChEMBL document CHEMBL4811232 (J Med Chem, 2021).
# Columns and labels:
# [1] = target: T1, Beta-secretase 1 (Homo sapiens, UniProt P56817)
# Description: Inhibition of BACE1 in human SH-SY5Y cells expressing wild type betaAPP assessed as reduction in amyloidbeta (1 to 40 residues) level incubated for 24 hrs by HTRF assay
# [2] = target: Cytochrome P450 2D6 (Homo sapiens, UniProt P10635)
# Description: Inhibition of CYP2D6 in human liver microsomes using dextromethorphan as substrate incubated for 15 mins in presence of NADPH by LC/MS/MS analysis
# [3] = in vitro; conditions: human, pooled liver microsomes
# Description: Metabolic stability in human pooled liver microsomes assessed as parent compound remaining at 0.1 uM measured after 30 mins in presence of NADPH by LC-MS/MS analysis
# [4] = target: T1, Beta-secretase 1; remark: listed apart in the source
# [5] = target: hERG (KCNH2) (Homo sapiens, UniProt Q12809); experiment: in vitro; conditions: CHO cells expressing human ERG
# Description: Inhibition of human ERG expressed in CHO cells at 5 uM maintained at -80 mV membrane potential by automated patch-clamp assay relative to control
# [6] = in vitro; conditions: Sprague-Dawley, rat, liver microsomes
# Description: Metabolic stability in Sprague-Dawley rat liver microsomes assessed as parent compound remaining at 0.1 uM measured after 30 mins in presence of NADPH by LC-MS/MS analysis
# [7] = target: MDR1 (ABCB1, P-gp) (Homo sapiens, UniProt P08183); experiment: in vitro; conditions: MDCK-MDR1
# Sequence of MDR1 (ABCB1, P-gp) (P08183 whole entry): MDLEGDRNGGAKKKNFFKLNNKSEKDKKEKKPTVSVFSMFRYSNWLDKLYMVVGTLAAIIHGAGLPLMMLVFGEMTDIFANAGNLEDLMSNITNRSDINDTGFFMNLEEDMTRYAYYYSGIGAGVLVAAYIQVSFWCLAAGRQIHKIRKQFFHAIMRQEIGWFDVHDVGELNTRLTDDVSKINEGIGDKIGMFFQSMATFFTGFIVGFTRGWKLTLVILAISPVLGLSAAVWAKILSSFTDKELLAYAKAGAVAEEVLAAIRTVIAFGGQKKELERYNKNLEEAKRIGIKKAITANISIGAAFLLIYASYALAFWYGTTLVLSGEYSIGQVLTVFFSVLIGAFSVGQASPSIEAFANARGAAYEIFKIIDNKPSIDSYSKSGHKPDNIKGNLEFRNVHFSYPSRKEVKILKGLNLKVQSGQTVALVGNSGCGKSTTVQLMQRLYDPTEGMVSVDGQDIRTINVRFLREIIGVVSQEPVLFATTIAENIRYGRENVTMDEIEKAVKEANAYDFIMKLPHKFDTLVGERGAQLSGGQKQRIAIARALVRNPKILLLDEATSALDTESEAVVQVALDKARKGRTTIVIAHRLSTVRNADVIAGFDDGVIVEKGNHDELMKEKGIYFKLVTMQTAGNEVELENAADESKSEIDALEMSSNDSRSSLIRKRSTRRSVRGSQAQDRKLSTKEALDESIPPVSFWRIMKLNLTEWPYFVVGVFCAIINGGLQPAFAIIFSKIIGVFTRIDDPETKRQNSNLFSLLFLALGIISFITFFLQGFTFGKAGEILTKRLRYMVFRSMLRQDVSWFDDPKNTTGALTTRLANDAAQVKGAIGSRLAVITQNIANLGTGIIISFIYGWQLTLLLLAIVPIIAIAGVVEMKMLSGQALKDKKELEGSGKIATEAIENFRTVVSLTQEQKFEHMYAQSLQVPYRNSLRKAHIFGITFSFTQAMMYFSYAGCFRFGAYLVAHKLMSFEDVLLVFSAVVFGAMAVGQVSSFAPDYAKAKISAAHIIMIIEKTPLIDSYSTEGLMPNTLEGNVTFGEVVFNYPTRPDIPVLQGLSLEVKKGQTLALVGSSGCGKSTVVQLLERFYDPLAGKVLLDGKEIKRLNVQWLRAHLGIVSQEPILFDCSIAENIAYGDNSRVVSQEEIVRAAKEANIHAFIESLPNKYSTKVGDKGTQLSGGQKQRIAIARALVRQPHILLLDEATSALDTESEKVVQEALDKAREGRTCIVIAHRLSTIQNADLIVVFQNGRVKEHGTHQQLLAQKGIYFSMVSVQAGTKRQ
# Description: Substrate activity at human MDR1 expressed in MDCK cells assessed as efflux ratio
# [8] = physchem
# Description: Dissociation constant, pKa of the compound by capillary electrophoresis method
# [9] = in vitro; conditions: dog, MDCK
# Description: Apparent permeability in MDCK cells
# [10] = human, microsomes, 1 h, 50 µM
# Description: Drug metabolism in human liver microsomes assessed as total covalent bond binding assessed per mg protein at 50 umol/L incubated for 1 hr in presence of NADPH by liquid scintillation counter analysis
# [11] = human, microsomes, 1 h, 10 µM
# Description: Drug metabolism in human liver microsomes assessed as NADPH-independent covalent bond binding assessed per mg protein at 10 umol/L incubated for 1 hr in presence of NADPH by liquid scintillation counter analysis
# [12] = human, microsomes, 1 h, 50 µM; remark: listed apart in the source
# Description: Drug metabolism in human liver microsomes assessed as NADPH-independent covalent bond binding assessed per mg protein at 50 umol/L incubated for 1 hr in presence of NADPH by liquid scintillation counter analysis
# [13] = human, microsomes, 1 h, 50 µM; remark: listed apart in the source
# Description: Drug metabolism in human liver microsomes assessed as NADPH-dependent covalent bond binding at 50 umol/L incubated for 1 hr in presence of NADPH by liquid scintillation counter analysis
# [14] = human, microsomes, 1 h, 10 µM; remark: listed apart in the source
# Description: Drug metabolism in human liver microsomes assessed as total covalent bond binding assessed per mg protein at 10 umol/L incubated for 1 hr in presence of NADPH by liquid scintillation counter analysis
# [15] = human, microsomes, 1 h, 10 µM; remark: listed apart in the source
# Description: Drug metabolism in human liver microsomes assessed as NADPH-dependent covalent bond binding assessed per mg protein at 10 umol/L incubated for 1 hr in presence of NADPH by liquid scintillation counter analysis
# Sequence of Cytochrome P450 2D6 (P10635 whole entry): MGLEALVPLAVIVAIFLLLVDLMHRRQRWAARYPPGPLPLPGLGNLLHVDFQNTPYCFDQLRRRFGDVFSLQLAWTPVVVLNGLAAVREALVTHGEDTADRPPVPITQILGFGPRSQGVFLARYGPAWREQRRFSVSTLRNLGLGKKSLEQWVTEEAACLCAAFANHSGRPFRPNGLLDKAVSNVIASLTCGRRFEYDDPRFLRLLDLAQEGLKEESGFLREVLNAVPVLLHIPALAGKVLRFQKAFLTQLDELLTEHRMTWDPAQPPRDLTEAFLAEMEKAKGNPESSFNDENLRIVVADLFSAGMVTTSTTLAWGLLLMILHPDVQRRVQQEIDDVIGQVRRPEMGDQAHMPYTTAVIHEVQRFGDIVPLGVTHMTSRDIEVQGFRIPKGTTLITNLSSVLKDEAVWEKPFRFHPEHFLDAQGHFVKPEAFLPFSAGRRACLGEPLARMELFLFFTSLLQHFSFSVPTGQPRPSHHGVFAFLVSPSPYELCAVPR
# Sequence of hERG (KCNH2) (Q12809 whole entry): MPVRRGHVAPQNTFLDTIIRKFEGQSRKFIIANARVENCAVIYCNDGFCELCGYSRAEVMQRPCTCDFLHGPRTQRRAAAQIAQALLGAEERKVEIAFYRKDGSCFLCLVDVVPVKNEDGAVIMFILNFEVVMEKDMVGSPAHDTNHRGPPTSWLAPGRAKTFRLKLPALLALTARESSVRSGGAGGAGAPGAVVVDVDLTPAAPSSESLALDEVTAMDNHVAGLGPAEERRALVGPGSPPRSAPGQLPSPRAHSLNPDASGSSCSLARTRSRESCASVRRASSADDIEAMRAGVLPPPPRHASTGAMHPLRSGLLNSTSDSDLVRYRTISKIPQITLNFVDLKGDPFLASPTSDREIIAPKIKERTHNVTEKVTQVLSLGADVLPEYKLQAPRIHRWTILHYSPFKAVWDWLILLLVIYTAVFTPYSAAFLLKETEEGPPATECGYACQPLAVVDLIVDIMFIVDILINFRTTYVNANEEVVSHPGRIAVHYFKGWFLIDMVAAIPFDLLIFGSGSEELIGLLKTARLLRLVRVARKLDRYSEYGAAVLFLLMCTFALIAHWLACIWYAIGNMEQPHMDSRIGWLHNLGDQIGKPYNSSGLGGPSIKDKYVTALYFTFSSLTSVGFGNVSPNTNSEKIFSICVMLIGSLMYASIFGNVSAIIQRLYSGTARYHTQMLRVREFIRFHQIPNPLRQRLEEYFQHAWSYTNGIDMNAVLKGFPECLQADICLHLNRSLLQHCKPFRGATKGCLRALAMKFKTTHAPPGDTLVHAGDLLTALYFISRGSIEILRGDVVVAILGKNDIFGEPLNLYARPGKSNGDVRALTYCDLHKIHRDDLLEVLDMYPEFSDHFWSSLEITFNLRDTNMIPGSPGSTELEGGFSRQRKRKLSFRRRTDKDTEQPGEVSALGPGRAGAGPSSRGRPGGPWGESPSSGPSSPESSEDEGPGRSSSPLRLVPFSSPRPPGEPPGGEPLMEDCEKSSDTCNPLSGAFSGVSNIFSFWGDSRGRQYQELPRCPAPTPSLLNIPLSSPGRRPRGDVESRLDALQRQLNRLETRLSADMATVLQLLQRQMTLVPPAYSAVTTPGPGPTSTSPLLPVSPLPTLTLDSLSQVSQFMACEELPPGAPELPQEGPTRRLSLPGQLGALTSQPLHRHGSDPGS
# T1 sequence (P56817 whole entry): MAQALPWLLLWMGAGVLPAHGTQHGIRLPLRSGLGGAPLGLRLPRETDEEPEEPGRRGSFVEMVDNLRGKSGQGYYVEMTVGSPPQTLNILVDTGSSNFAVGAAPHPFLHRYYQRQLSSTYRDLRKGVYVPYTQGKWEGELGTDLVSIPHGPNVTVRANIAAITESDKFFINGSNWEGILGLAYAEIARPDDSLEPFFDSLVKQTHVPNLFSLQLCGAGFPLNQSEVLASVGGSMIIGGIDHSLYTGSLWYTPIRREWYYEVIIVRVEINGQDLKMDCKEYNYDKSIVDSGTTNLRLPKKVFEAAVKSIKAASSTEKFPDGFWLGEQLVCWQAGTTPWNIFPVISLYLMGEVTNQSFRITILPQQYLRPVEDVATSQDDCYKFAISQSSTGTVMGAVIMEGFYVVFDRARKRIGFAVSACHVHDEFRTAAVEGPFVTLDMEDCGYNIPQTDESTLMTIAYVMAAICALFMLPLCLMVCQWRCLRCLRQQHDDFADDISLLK
SMILES,IC50 [1],IC50 [2],"remaining at 0.5 h, 0.1 µM [3]",IC50 [4],inhibition at 5 µM [5],"remaining at 0.5 h, 0.1 µM [6]",efflux ratio [7],pKa [8],Papp [9],Drug metabolism [10],Drug metabolism [11],Drug metabolism [12],Drug metabolism [13],Drug metabolism [14],Drug metabolism [15]
C[C@@]1(c2cc(NC(=O)c3ccc(Cl)cn3)ccc2F)C=CSC(N)=N1,5.5 nM,< 1000 nM,78%,9.6 nM,80%,76%,,,,,,,,,
CC1(c2cccc(C(=O)Nc3ccc(Cl)cn3)c2)CCSC(N)=N1 (stereo not drawn),170 nM,,,1450 nM,,,,,,,,,,,
C[C@@]1(c2cc(NC(=O)c3ncc(C#N)cc3Cl)ccc2F)C=CSC(N)=N1,1.6 nM,> 20000 nM,85%,20 nM,48%,87%,20,,,,,,,,
C[C@@]1(c2cc(NC(=O)c3ccc(F)cn3)ccc2F)C=CSC(N)=N1,4.2 nM,11000 nM,97%,39 nM,67%,60%,2,,,,,,,,
COc1cnc(C(=O)Nc2ccc(F)c([C@]3(C)C=CSC(N)=N3)c2)cn1,4.4 nM,< 1000 nM,27%,21 nM,29%,88%,1.4,,,,,,,,
C=C1C[C@@](C)(c2cc(NC(=O)c3ccc(C#N)cn3)ccc2F)N=C(N)S1,1.1 nM,,65%,9.1 nM,78%,8%,5.3,7.8,38 ×10⁻⁶ cm/s,,,,,,
C[C@@]1(c2cc(NC(=O)c3ccc(C#N)cn3)ccc2F)CCSC(N)=N1,,,104%,,91%,66%,,9,12 ×10⁻⁶ cm/s,,,,,,
N#Cc1ccc(C(=O)Nc2ccc(F)c([C@]3(CF)CCSC(N)=N3)c2)nc1,0.62 nM,,86%,16 nM,90%,64%,22,7.6,22 ×10⁻⁶ cm/s,,,,,,
C[C@@]1(c2cc(C(=O)Nc3ccc(Cl)cn3)ccc2F)CCSC(N)=N1,0.84 nM,,,6.7 nM,,,,,,,,,,,
CCc1ccc(CCOc2ccc(CC3SC(=O)NC3=O)cc2)nc1 (stereo not drawn) [PIOGLITAZONE],,,,,,,,,,3458 pmol,4 pmol,12 pmol,3446 pmol,599 pmol,594 pmol
